Test results published in ChEMBL document CHEMBL1201862, “PubChem BioAssay data set” (2004).
Activity calls are given as the source filed them.

Tests used:
[1] = Luminescence Cell-Based Dose Retest to Confirm Inhibitors of Cancer Stem Cells. [Related pubchem assays (depositor defined):AID2717, AID2721]; assay type: functional; settings: Homo sapiens
[2] = cytotoxicity in HMLE control line with eGFP shRNA, dose response, counter-screen for HMLE_sh_ECad selective toxicity project, cell-based, HMLE_sh_eGFP, luminescence (AID 463074); assay type: functional, Homo sapiens;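 note: HMLE human mammary epithelial cells expressing control shRNA against eGFP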
Exodeoxyribonuclease V = molecular target: T1, Exodeoxyribonuclease V (Escherichia coli (strain K12), UniProt P04993+P07648+P08394); test: E. coli RecBCD inhibitors, dose response, counter-screen for AddAB inhibitor project, absorbance, V66 E. coli, mutant T4 phage (AID 492957); assay type: functional, cell-based, Escherichia coli str. K-12 substr. MG1655
T1 sequence (P04993 whole entry): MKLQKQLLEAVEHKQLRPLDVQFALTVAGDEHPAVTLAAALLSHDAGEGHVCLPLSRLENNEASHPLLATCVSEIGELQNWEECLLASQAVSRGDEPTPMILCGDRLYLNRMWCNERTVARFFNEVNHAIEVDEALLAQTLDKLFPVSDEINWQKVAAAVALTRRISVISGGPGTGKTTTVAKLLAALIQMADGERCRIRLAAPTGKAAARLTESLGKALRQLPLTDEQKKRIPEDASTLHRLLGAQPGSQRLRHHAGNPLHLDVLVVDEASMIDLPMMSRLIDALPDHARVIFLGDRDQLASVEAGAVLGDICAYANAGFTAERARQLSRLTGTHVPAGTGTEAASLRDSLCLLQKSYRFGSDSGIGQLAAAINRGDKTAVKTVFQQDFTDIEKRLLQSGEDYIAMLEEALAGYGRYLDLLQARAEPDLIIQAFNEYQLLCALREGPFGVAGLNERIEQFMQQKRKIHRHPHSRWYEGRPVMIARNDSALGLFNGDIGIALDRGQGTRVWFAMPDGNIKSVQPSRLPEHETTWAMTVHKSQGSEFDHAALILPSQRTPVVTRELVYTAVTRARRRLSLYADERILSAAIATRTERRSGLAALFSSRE
T1 sequence (P07648 whole entry): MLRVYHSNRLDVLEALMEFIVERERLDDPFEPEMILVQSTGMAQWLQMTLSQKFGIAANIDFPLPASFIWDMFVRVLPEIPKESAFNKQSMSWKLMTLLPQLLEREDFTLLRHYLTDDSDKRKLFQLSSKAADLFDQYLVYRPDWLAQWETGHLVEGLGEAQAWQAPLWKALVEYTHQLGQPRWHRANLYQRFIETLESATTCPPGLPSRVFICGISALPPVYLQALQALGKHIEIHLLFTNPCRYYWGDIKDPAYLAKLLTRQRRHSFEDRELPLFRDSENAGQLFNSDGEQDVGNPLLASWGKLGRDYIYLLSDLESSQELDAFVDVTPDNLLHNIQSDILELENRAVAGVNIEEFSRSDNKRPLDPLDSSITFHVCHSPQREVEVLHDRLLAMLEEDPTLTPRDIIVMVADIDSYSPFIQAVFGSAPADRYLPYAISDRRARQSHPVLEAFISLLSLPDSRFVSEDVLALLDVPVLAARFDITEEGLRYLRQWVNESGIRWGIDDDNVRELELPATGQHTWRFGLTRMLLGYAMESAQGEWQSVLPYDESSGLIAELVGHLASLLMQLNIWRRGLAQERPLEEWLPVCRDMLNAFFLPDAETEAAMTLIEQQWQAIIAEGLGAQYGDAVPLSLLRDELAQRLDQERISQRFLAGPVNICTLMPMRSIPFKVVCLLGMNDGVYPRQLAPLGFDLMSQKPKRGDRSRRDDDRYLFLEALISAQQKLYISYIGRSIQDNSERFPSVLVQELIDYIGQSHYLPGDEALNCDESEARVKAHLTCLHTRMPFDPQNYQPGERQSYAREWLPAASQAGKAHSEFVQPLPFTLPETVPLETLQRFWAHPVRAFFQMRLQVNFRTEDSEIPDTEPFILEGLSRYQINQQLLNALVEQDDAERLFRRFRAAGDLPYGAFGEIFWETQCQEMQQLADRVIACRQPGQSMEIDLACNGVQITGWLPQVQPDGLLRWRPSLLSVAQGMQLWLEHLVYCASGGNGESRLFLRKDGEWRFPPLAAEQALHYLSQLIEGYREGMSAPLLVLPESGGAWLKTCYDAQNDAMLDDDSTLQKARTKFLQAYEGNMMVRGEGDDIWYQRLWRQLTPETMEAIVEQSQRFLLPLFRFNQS
T1 sequence (P08394 whole entry): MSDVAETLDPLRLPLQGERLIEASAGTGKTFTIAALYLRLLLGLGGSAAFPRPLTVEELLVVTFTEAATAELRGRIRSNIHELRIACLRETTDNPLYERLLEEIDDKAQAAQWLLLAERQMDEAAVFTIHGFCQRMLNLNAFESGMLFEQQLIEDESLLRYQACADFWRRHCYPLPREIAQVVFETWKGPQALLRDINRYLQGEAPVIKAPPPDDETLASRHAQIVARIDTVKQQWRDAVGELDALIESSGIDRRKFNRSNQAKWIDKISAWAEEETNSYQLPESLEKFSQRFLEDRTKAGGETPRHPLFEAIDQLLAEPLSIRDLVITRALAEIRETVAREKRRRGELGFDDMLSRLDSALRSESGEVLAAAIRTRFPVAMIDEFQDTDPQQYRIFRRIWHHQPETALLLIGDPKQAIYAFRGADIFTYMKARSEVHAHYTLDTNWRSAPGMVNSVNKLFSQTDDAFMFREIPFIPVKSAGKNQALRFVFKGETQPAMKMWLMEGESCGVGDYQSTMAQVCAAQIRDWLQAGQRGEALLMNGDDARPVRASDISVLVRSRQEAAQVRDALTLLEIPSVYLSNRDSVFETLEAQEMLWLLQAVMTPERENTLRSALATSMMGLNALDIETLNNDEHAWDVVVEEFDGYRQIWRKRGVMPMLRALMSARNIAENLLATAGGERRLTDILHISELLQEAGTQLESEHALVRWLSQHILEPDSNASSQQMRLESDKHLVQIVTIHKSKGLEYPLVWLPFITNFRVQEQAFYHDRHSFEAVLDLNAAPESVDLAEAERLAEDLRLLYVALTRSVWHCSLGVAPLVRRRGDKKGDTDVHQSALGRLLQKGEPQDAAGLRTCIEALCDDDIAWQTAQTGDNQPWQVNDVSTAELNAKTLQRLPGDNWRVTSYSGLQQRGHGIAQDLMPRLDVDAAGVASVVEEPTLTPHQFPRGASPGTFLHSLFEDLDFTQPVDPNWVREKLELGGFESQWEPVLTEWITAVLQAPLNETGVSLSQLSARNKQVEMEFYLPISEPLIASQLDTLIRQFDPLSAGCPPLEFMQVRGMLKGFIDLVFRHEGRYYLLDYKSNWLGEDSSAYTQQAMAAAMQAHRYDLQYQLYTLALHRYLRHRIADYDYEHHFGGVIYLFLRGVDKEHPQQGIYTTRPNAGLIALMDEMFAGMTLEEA

[3] = Counterscreen for AddAB inhibitors: absorbance-based bacterial cell-based high throughput dose response assay for inhibitors of bacterial viability. [Related pubchem assays (depositor defined):AID435030, AID449728, AID449731, AID488942, AID488955, AID488956]; assay type: functional
BJ [4] = test: cytotoxicity toward BJ-TERT fibroblasts, dose response, cell-based, RAS-independent, luminescence (AID 1933); assay type: functional; settings: Homo sapiens
BJ [5] = test: cells; assay type: functional, cell-based; settings: Homo sapiens
BJ [6] = test: cytotoxicity toward BJ-TERT-LT-ST fibroblasts, dose response, cell-based, RAS-independent, luminescence (AID 1935); assay type: functional; settings: Homo sapiens;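 note: BJ fibroblasts immortalized with TERT plus LT and ST oncogenes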
[7] = cytotoxicity toward DRD oncogenic fibroblasts, dose response, cell-based, non-viral oncogenic, luminescence (AID 1934); assay type: functional; settings: Homo sapiens
INS1 = test: beta cell apoptosis inhibitors, cytokine rescue, dose response, luminescence, retest (AID 449756); assay type: functional, cell-based; settings: Rattus norvegicus;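 note: cell death triggered by IL-1 beta plus TNF-alpha plus IFN-gamma mixture; protective hits raise ATP signal compared with cytokine alone wells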

Row | Structure (SMILES) | AC50 [1] | AC50 [2] | IC50 (Exodeoxyribonuclease V) | IC50 [3] | EC50 (BJ [4]) | EC50 (BJ [5]) | EC50 (BJ [6]) | EC50 [7] | AC50 (INS1)
1 | Cc1ccc(N/N=C(\Cc2nc3ccccc3[nH]2)c2ccccc2)cc1 | 0.47 µM (active) | 0.385 µM (inconclusive) | – | – | – | – | – | – | –
2 | Cc1cc(N/N=C/c2ccc([N+](=O)[O-])o2)nc2ccccc12 | – | – | > 118 µM (inactive) | > 118 µM (inactive) | – | – | – | – | –
3 | Cc1cccc(NC(=S)N/N=C/c2cccc(O)c2)c1C | 1.15 µM (active) | 33.7 µM (active) | – | – | 11.3 µM (active) | 26 µM (inconclusive) | 2.91 µM (active) | 2.75 µM (active) | –
4 | C=CCc1cccc(/C=N/NC(=O)CCC(=O)Nc2ccc(F)cc2)c1O | – | – | > 119 µM (inactive) | > 119 µM (inactive) | – | – | – | – | 3.18 µM (active)
